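Compound exposure: 48 hours, 5 concentrations, 96-well plates. At the GI50, growth is halved. The concentration for full growth arrest is given as TGI.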
How the values were obtained:
Assay in all cases: NCI tumour cell line growth inhibition, 48 h
786-0 renal = test system: 786-0 renal
A498 renal = test system: A498 renal
A549 NSCLC = test system: A549 NSCLC
ACHN renal = test system: ACHN renal
BT-549 breast = test system: BT-549 breast
CAKI-1 renal = test system: CAKI-1 renal
CCRF-CEM leukemia = test system: CCRF-CEM leukemia
COLO 205 colon = test system: COLO 205 colon
DU-145 prostate = test system: DU-145 prostate
EKVX NSCLC = test system: EKVX NSCLC
HCC-2998 colon = test system: HCC-2998 colon
HCT-116 colon = test system: HCT-116 colon
HCT-15 colon = test system: HCT-15 colon
HL-60(TB) leukemia = test system: HL-60(TB) leukemia
HOP-62 NSCLC = test system: HOP-62 NSCLC
HOP-92 NSCLC = test system: HOP-92 NSCLC
HS 578T breast = test system: HS 578T breast
HT29 colon = test system: HT29 colon
IGROV1 ovarian = test system: IGROV1 ovarian
K-562 leukemia = test system: K-562 leukemia
KM12 colon = test system: KM12 colon
LOX IMVI melanoma = test system: LOX IMVI melanoma
M14 melanoma = test system: M14 melanoma
MALME-3M melanoma = test system: MALME-3M melanoma
MCF7 breast = test system: MCF7 breast
MDA-MB-231 breast = test system: MDA-MB-231 breast
MDA-MB-435 = test system: MDA-MB-435
MOLT-4 leukemia = test system: MOLT-4 leukemia
NCI-H226 lung = test system: NCI-H226 lung
NCI-H23 lung = test system: NCI-H23 lung
NCI-H460 lung = test system: NCI-H460 lung
NCI/ADR-RES ovarian = test system: NCI/ADR-RES ovarian
OVCAR-3 ovarian = test system: OVCAR-3 ovarian
OVCAR-4 ovarian = test system: OVCAR-4 ovarian
OVCAR-5 ovarian = test system: OVCAR-5 ovarian
OVCAR-8 ovarian = test system: OVCAR-8 ovarian
PC-3 prostate = test system: PC-3 prostate
RPMI-8226 leukemia = test system: RPMI-8226 leukemia
RXF 393 renal = test system: RXF 393 renal
SF-268 CNS = test system: SF-268 CNS
SF-295 CNS = test system: SF-295 CNS
SF-539 CNS = test system: SF-539 CNS
SK-MEL-2 melanoma = test system: SK-MEL-2 melanoma
SK-MEL-28 melanoma = test system: SK-MEL-28 melanoma
SK-MEL-5 melanoma = test system: SK-MEL-5 melanoma
SK-OV-3 ovarian = test system: SK-OV-3 ovarian
SNB-19 CNS = test system: SNB-19 CNS
SNB-75 CNS = test system: SNB-75 CNS
SW-620 colon = test system: SW-620 colon
T-47D breast = test system: T-47D breast
TK-10 renal = test system: TK-10 renal
U251 CNS = test system: U251 CNS
UACC-257 melanoma = test system: UACC-257 melanoma
UACC-62 melanoma = test system: UACC-62 melanoma
UO-31 renal = test system: UO-31 renal
NCI-H522 lung = test system: NCI-H522 lung
SN12C renal = test system: SN12C renal

O=S(=O)(c1ccccc1)n1c(C(O)c2ccccc2)cc2ccccc21 (stereo not given)
TGI (786-0 renal): 29.6 µM
TGI (A498 renal): 26.5 µM
TGI (A549 NSCLC): 35.3 µM
TGI (ACHN renal): 29.1 µM
TGI (BT-549 breast): 32.2 µM
TGI (CAKI-1 renal): 47.3 µM
TGI (CCRF-CEM leukemia): 28.9 µM
TGI (COLO 205 colon): 45.5 µM
TGI (DU-145 prostate): > 100 µM
TGI (EKVX NSCLC): 41.6 µM
TGI (HCC-2998 colon): 33.2 µM
TGI (HCT-116 colon): 34.6 µM
TGI (HCT-15 colon): 61.3 µM
TGI (HL-60(TB) leukemia): 34.9 µM
TGI (HOP-62 NSCLC): 31.8 µM
TGI (HOP-92 NSCLC): 38.4 µM
TGI (HS 578T breast): 27.9 µM
TGI (HT29 colon): 26.2 µM
TGI (IGROV1 ovarian): 35.4 µM
TGI (K-562 leukemia): > 100 µM
TGI (KM12 colon): 30.3 µM
TGI (LOX IMVI melanoma): > 100 µM
TGI (M14 melanoma): 28.1 µM
TGI (MALME-3M melanoma): 39.2 µM
TGI (MCF7 breast): 40.9 µM
TGI (MDA-MB-231 breast): 49.2 µM
TGI (MDA-MB-435): 36.4 µM
TGI (MOLT-4 leukemia): > 100 µM
TGI (NCI-H226 lung): 29.3 µM
TGI (NCI-H23 lung): 41.9 µM
TGI (NCI-H460 lung): > 100 µM
TGI (NCI/ADR-RES ovarian): 30.3 µM
TGI (OVCAR-3 ovarian): 30.3 µM
TGI (OVCAR-4 ovarian): 50.2 µM
TGI (OVCAR-5 ovarian): 30.9 µM
TGI (OVCAR-8 ovarian): 49.9 µM
TGI (PC-3 prostate): 30.2 µM
TGI (RPMI-8226 leukemia): > 100 µM
TGI (RXF 393 renal): 30.5 µM
TGI (SF-268 CNS): 38.5 µM
TGI (SF-295 CNS): 32.2 µM
TGI (SF-539 CNS): 30.8 µM
TGI (SK-MEL-2 melanoma): 31.3 µM
TGI (SK-MEL-28 melanoma): 39.9 µM
TGI (SK-MEL-5 melanoma): 32.4 µM
TGI (SK-OV-3 ovarian): 29 µM
TGI (SNB-19 CNS): 26.7 µM
TGI (SNB-75 CNS): 35.7 µM
TGI (SW-620 colon): 64.7 µM
TGI (T-47D breast): 65.8 µM
TGI (TK-10 renal): 33.6 µM
TGI (U251 CNS): 43.7 µM
TGI (UACC-257 melanoma): 34.4 µM
TGI (UACC-62 melanoma): 28 µM
TGI (UO-31 renal): 24 µM

COc1cc2c3c(n(CCCNC4=NCCS4)c(=O)c2cc1OC)-c1cc2c(cc1C3=O)OCO2
GI50 (786-0 renal): < 0.01 µM
TGI (786-0 renal): 0.0371 µM
GI50 (A498 renal): 1.52 µM
TGI (A498 renal): 7.68 µM
GI50 (A549 NSCLC): < 0.01 µM
TGI (A549 NSCLC): 1.33 µM
GI50 (ACHN renal): < 0.01 µM
TGI (ACHN renal): 0.135 µM
GI50 (BT-549 breast): 1.73 µM
TGI (BT-549 breast): 9.3 µM
GI50 (CAKI-1 renal): < 0.01 µM
TGI (CAKI-1 renal): 0.749 µM
GI50 (CCRF-CEM leukemia): < 0.01 µM
TGI (COLO 205 colon): 4.09 µM
GI50 (DU-145 prostate): < 0.01 µM
TGI (DU-145 prostate): 1.31 µM
GI50 (EKVX NSCLC): 1.79 µM
TGI (EKVX NSCLC): 8.8 µM
GI50 (HCC-2998 colon): < 0.01 µM
GI50 (HCT-116 colon): < 0.01 µM
TGI (HCT-116 colon): 0.127 µM
GI50 (HCT-15 colon): 0.823 µM
TGI (HCT-15 colon): 3.67 µM
GI50 (HL-60(TB) leukemia): 0.142 µM
GI50 (HOP-62 NSCLC): < 0.01 µM
TGI (HOP-92 NSCLC): 1.95 µM
GI50 (HS 578T breast): 1.4 µM
TGI (HS 578T breast): 3.85 µM
GI50 (HT29 colon): < 0.0347 µM
TGI (HT29 colon): 0.756 µM
GI50 (IGROV1 ovarian): 0.197 µM
TGI (IGROV1 ovarian): > 100 µM
GI50 (K-562 leukemia): < 0.01 µM
TGI (K-562 leukemia): 0.631 µM
GI50 (KM12 colon): 1.11 µM
TGI (KM12 colon): 3.11 µM
GI50 (LOX IMVI melanoma): < 0.01 µM
TGI (LOX IMVI melanoma): 0.232 µM
GI50 (M14 melanoma): < 0.01 µM
TGI (M14 melanoma): 0.201 µM
GI50 (MALME-3M melanoma): 1.44 µM
TGI (MALME-3M melanoma): 5.41 µM
GI50 (MCF7 breast): < 0.01 µM
GI50 (MDA-MB-231 breast): 0.465 µM
TGI (MDA-MB-231 breast): 1.02 µM
TGI (MDA-MB-435): 1.83 µM
GI50 (MOLT-4 leukemia): < 0.01 µM
GI50 (NCI-H226 lung): 0.0456 µM
TGI (NCI-H226 lung): 0.913 µM
GI50 (NCI-H23 lung): < 0.0123 µM
TGI (NCI-H23 lung): 0.128 µM
GI50 (NCI-H522 lung): 0.174 µM
TGI (NCI-H522 lung): > 56.2 µM
GI50 (NCI/ADR-RES ovarian): < 0.0183 µM
TGI (NCI/ADR-RES ovarian): 0.319 µM
GI50 (OVCAR-3 ovarian): 0.203 µM
TGI (OVCAR-3 ovarian): 2.09 µM
GI50 (OVCAR-4 ovarian): 1.82 µM
TGI (OVCAR-4 ovarian): 6.1 µM
GI50 (OVCAR-5 ovarian): 0.668 µM
TGI (OVCAR-5 ovarian): 2.08 µM
TGI (OVCAR-8 ovarian): 2.11 µM
GI50 (PC-3 prostate): 0.722 µM
TGI (PC-3 prostate): 3.51 µM
GI50 (RPMI-8226 leukemia): < 0.0145 µM
TGI (RPMI-8226 leukemia): 0.296 µM
GI50 (SF-268 CNS): 0.188 µM
TGI (SF-268 CNS): 5.19 µM
GI50 (SF-295 CNS): < 0.01 µM
TGI (SF-295 CNS): 1.42 µM
GI50 (SF-539 CNS): < 0.0122 µM
TGI (SF-539 CNS): 0.283 µM
GI50 (SK-MEL-2 melanoma): 9.98 µM
TGI (SK-MEL-2 melanoma): > 80.6 µM
GI50 (SK-MEL-28 melanoma): 1.12 µM
TGI (SK-MEL-28 melanoma): 3.21 µM
GI50 (SK-MEL-5 melanoma): 0.236 µM
TGI (SK-MEL-5 melanoma): 2.23 µM
TGI (SK-OV-3 ovarian): 3.18 µM
GI50 (SN12C renal): < 0.0255 µM
TGI (SN12C renal): 0.408 µM
GI50 (SNB-19 CNS): 1.03 µM
TGI (SNB-19 CNS): > 100 µM
TGI (SNB-75 CNS): 1.44 µM
TGI (T-47D breast): 2.7 µM
GI50 (TK-10 renal): 4.59 µM
TGI (TK-10 renal): 10.6 µM
GI50 (U251 CNS): < 0.01 µM
TGI (U251 CNS): 0.197 µM
GI50 (UACC-257 melanoma): 1.21 µM
TGI (UACC-257 melanoma): 5.67 µM
GI50 (UACC-62 melanoma): 0.0559 µM
TGI (UACC-62 melanoma): 1.66 µM
GI50 (UO-31 renal): 0.147 µM
TGI (UO-31 renal): > 100 µM

Reference: PubChem BioAssay (NCI)
